“Also recorded” adds a separate entry of the source.
Tests used:
[1] = In vivo elution: HPLC detection of TA in tissues after 4-week subretinal implantation; set-up: species or system rabbit; details: four weeks after the implant, PCL/TA 60:40 subretinal
[2] = 72 hours after injection; cited from earlier work
[3] = direct injection, posterior segment; cited from earlier work

CC1(C)O[C@@H]2C[C@H]3[C@@H]4CCC5=CC(=O)C=C[C@]5(C)[C@@]4(F)[C@@H](O)C[C@]3(C)[C@]2(C(=O)CO)O1 [TA, Triamcinolone acetonide]
TA detection in anterior structures or blood (HPLC) [1]: not detected
TA detection in posterior tissue samples (HPLC) [1]: confirmed the presence; also recorded: localized to the posterior eye segment

C[C@]12C=CC(=O)C=C1CC[C@H]1[C@@H]3C[C@@H](O)[C@](O)(C(=O)CO)[C@@]3(C)C[C@H](O)[C@@]12F [triamcinolone]
triamcinolone present in the vitreous associated with other tissues including retina, pigment epithelium, sclera [2]: less than 1%
adverse or undesirable side effects observed [3]: elevations in intraocular pressure and the formation of, or acceleration of the development of cataracts
